According to patent US8415371B2, “Methods and kits for treating cluster headache disorders” (priority 2008, dated 2013):
Entries after “also recorded” stand apart in the source; their conditions may differ.

Legend:
[1] = test system: treatment-refractory cluster headache patients; experiment: Side effects, consciousness, thought disturbances and vital signs observed three to four hours after bromolysergide administration (Example 3); type: in vivo, human
Description: (§1) Patients referred to the Pain Clinic at the Hannover Medical School were identified with cluster headache if they met the respective diagnostic criteria of the international classification of headache disorders (Headache Classification Committee of the International Headache Society (2004) The International Classification of Headache Disorders, 2nd edn. Cephalalgia 24 Suppl 1:1-160). In addition, all patients were non-responders to verapamil and other prophylactic medications (i.e., refractory to the prophylactic medications listed in Table 1 for each patient). In accordance with German national and local ethics committee rules, all patients signed an informed consent, in which the patients declared their agreement to participate in this project on the compassionate use of bromolysergide for cluster headache. Patients kept a standardized daily diary of cluster headache symptoms starting at least two weeks prior to bromolysergide administration. Bromolysergide (hydrochloride salt) was manufactured by THCpharm GmbH (Frankfurt am Main, Germany). A purity of >99.2% was identified by HPLC and other analytical tests. Bromolysergide hydrochloride 30 μg per Kg body weight was dissolved into distilled water and then given once every 5 days for a total of 3 doses per os. Alterations in consciousness, thought disturbances, and vital signs (blood pressure, heart rate) were measured during a three to four hour observational period following administration. Patients were asked to continue completing daily headache diaries for the next months or until they experience 3 days of attacks of a starting new cluster series.

[2] = test system: treatment-refractory cluster headache patients; experiment: Compassionate use of bromolysergide in treatment-refractory cluster headache patients, daily headache diary (Example 3); type: in vivo, human; details: for continuous period of attack quiescence: indicates transition from chronic to episodic form
Description: as §1

[3] = test system: subjects diagnosed with chronic cluster headache disorder; experiment: Treatment of chronic cluster headache disorder with bromolysergide, two adult subjects (Example 1); type: in vivo, human; details: once every five days
Description: The desired amount of bromolysergide (hydrochloride salt) was mixed with dextrose and placed into gelatin capsules for administration to subjects suffering from chronic cluster headache disorder.
Bromolysergide was administered to two adult subjects diagnosed with chronic cluster headache disorder during a cluster period. A dose of 2 mg of 2-bromolysergic acid dethylamide (30 μg/kg body weight) was administered orally to subject 1 three times, once every five days. A dose of 2.5 mg of 2-bromolysergic acid dethylamide (approximately 30 μg/kg body weight) was administered orally to subject 2 three times, once every five days.
Subjects were asked to rate their symptoms following administration of bromolysergide.

[4] = cited from earlier work
[5] = daily prophylactic administration over time; rare; cited from earlier work
[6] = subject 1, 2 mg (30 μg/kg) orally three times, for ten weeks
[7] = subject 2, 2.5 mg orally three times

SMILES: CCN(CC)C(=O)[C@@H]1C=C2c3cccc4[nH]c(Br)c(c34)C[C@H]2N(C)C1 [bromolysergide, 2-bromolysergic acid diethylamide]
- duration of side effect ([1]; each of the five subjects, 30 μg/kg per os): about 2 hours
- changes to heart rate and blood pressure ([1]; five patients, during bromolysergide treatment): No changes
- duration of mild subjective effects ([1]; five patients, 30 μg/kg per os): one to two
- hallucinogenic or psychotic effects ([1]; five patients, 30 μg/kg per os): No visual hallucinations or distortions occurred nor was there any evidence of delusional thinking or overt psychosis; also recorded: non-hallucinogenic
- other side effects ([1]; five patients, apart from very mild alterations of subjective state and mild to no sympathetic reactions): no other side effects were observed
- subjective feelings recorded ([1]; most of the patients, 30 μg/kg per os): “flabby” or “light drunk” feelings
- subjective effects noted ([1]; patient S2, 30 μg/kg per os): “funny” feeling, tense muscles, and sweating of their hands
- Vital signs ([1]; subject S1, 2.5 mg ×3): unchanged
- Side effects ([1]; subject S1, 2.5 mg ×3, cell wraps into r25: “flabby feeling”): “flabby
- Vital signs ([1]; subject S2, 2.0 mg ×3): unchanged
- Side effects ([1]; subject S2, 2.0 mg ×3, cell wraps into r25: “funny feeling”): “funny
- Side effects ([1]; subject S3, 3.1 mg ×3): “slightly
- Vital signs ([1]; subject S3, 3.1 mg ×3): unchanged
- Side effects ([1]; subject S4, 3.1 mg ×3): “slightly
- Vital signs ([1]; subject S4, 3.1 mg ×3): unchanged
- Side effects ([1]; subject S5, 2.2 mg ×3): “slightly
- Vital signs ([1]; subject S5, 2.2 mg ×3): unchanged
- overall effect on cluster headache cycle, frequency and intensity of attacks ([2]; five treatment-refractory patients, three single doses of 30 μg/kg within 10 days, FIG. 1): can either break a cluster headache cycle or considerably improve the frequency and intensity of attacks; also recorded: quite effective at breaking cluster headache cycle; also recorded: can break a cluster headache cycle, convert a chronic cluster headache disorder into an episodic cluster headache disorder, and extend the remission period
- attack frequency ([2]; patient S1, chronic form, 30 μg/kg per os ×3): did not show this pronounced attack reduction
- decrease of attack intensity ([2]; patient S1, chronic form, 30 μg/kg per os ×3, within the first 4 months, continued to drink alcohol): about 30%
- outcome of cluster period ([2]; patient S2, episodic form, 30 μg/kg per os once every 5 days, 3 doses): termination of their cluster period
- remission period ([2]; patient S2, episodic form, 30 μg/kg per os ×3, at last follow-up and continuing): six
- attack frequency ([2]; patient S3, chronic form, 30 μg/kg per os ×3): pronounced reduction of attack frequency
- pain intensity during remaining occasional attacks ([2]; patient S3, 30 μg/kg per os ×3): such reductions of pain intensity during their remaining occasional attacks that they no longer administered an acute intervention
- continuous period of attack quiescence ([2]; patient S3, 30 μg/kg per os ×3): greater than 4 week
- attack frequency ([2]; patient S4, chronic form, 30 μg/kg per os ×3): profound reduction of attack frequency
- continuous break of attacks ([2]; patient S4, 30 μg/kg per os ×3): did not show a continuous 4-week break of attacks
- pain intensity during remaining occasional attacks ([2]; patient S4, 30 μg/kg per os ×3): such reductions of pain intensity during their remaining occasional attacks that they no longer administered an acute intervention
- attack frequency ([2]; patient S5, chronic form, 30 μg/kg per os ×3): pronounced reduction of attack frequency
- continuous period of attack quiescence ([2]; patient S5, 30 μg/kg per os ×3): greater than 4 week
- rating of results (Clinical Global Impressions Scale) ([3]; subject 1, chronic cluster headache, 2 mg (30 μg/kg) orally three times): minimally improved
- duration of improvement before reverting to pre-treatment form ([3]; subject 1, 2 mg (30 μg/kg) orally three times): ten
- reduction in pain [3, 6]: 30%
- reduction of attack frequency [3, 6]: 30%
- rating of results (Clinical Global Impressions Scale) ([3]; subject 2, chronic cluster headache for more than 6 years, 2.5 mg (approximately 30 μg/kg) orally three times): marked/very much improved
- International Headache Society criteria for chronic cluster headache disorder after treatment [3, 7]: no longer met criteria
- remission of symptoms [3, 7]: complete or nearly complete remission of symptoms
- time free of attacks ([3]; subject 2, 2.5 mg orally three times, at last follow-up): more than 3 months

SMILES: CC[C@@H](CO)NC(=O)[C@@H]1C=C2c3cccc4c3c(cn4C)C[C@H]2N(C)C1 [methysergide]
- dose estimated to be equivalent to 25 micgrograms LSD ([4]; Abrahamson et al., J. Asthma Res. 3:81 (1965)): ca. 4 mg
- hallucinogenic effect ([4]; supra-therapeutic doses): hallucinogenic
- serious medical complication in the longstanding user [5]: fibrotic reactions (retroperitoneal, pulmonary, pleural, and cardiac)
